pKi: −log10 of the molar value.

For assay [1], the species on record is Rattus norvegicus. Description: Selectivity ratio of […] in rat corpus striatum. Format: tissue-based.
Assay [2] has as its target D(2) dopamine receptor (Rattus norvegicus, UniProt P61169). In words: Displacement of [3H]neomonapride from dopamine D2 receptor in rat corpus striatum.
Assay [3] deals with D(1A) dopamine receptor (Rattus norvegicus, UniProt P18901). In words: Displacement of [3H]SCH23390 from dopamine D1 receptor in rat corpus striatum.
Chain of D(1A) dopamine receptor (P18901 whole entry): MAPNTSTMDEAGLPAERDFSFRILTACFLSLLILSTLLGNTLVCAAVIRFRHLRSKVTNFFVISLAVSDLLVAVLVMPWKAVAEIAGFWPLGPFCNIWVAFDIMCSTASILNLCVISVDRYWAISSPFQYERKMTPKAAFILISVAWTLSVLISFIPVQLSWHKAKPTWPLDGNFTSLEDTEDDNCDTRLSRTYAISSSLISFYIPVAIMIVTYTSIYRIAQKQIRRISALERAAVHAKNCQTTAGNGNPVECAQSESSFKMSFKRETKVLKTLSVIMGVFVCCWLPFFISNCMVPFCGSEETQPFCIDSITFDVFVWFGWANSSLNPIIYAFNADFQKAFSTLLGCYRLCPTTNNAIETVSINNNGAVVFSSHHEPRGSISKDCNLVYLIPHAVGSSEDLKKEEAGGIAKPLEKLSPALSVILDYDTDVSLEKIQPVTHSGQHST
Assay [4] has as its target T1, 5-hydroxytryptamine receptor 1A (Rattus norvegicus, UniProt P19327).
T1 sequence (P19327 whole entry): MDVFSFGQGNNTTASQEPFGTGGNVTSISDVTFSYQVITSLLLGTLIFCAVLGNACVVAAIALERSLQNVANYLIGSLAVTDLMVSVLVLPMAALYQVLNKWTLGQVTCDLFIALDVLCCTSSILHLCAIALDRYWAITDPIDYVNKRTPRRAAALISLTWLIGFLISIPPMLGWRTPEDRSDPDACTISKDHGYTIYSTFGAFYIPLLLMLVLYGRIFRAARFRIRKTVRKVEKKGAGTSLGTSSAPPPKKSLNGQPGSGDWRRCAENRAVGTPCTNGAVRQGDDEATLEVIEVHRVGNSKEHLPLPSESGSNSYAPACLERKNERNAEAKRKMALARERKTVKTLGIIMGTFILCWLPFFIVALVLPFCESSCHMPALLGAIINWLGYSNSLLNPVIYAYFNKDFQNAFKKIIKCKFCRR
Description: Displacement of [3H]8-OH-DPAT from Serotonin 5-HT1A receptor in rat corpus striatum.

Chain of D(2) dopamine receptor (P61169 whole entry): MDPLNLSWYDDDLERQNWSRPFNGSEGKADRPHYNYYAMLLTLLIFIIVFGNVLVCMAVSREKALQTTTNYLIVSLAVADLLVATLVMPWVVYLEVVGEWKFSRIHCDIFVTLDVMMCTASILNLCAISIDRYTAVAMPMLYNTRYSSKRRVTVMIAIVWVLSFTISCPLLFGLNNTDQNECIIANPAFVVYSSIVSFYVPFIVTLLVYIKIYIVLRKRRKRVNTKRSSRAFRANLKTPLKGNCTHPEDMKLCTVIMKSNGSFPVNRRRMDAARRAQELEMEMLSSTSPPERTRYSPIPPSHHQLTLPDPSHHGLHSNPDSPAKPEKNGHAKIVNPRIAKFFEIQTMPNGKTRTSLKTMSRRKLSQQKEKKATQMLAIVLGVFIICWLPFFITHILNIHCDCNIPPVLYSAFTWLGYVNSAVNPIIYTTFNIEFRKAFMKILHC

Take `COc1cc2c3c(c1)-c1ccccc1C[C@H]3N(C)CC2`: in assay [1], the Ratio came out at 1.8. In addition, the pKi in assay [2] was 6.14; in assay [3], 5.89; in assay [4] it was 5.58.
As to `CCOc1cccc2c1-c1cc(O)cc3c1[C@@H](C2)N(C)CC3`, in assay [1], the Ratio turned out to be 5.7. The pKi in assay [2] was 6.19; in assay [3], 5.43; in assay [4], 6.36.
Consider `CCCN1CCc2cc(OCCO)cc3c2[C@H]1Cc1cccc(O)c1-3`, for which the Ratio in assay [1] is more than 103. Also, the pKi in assay [2] was 7.01; in assay [3] it was less than 5.00.
As to `CCCN1CCc2cc(OC)cc3c2[C@H]1Cc1ccccc1-3`, the results for the pKi in assay [3] and in assay [4] were less than 5.00 and 5.80, respectively.
Take `CN1CCc2cc(O)cc3c2[C@H]1Cc1cccc(OCCO)c1-3`: the Ratio in assay [1] was determined as 3. Also, the pKi in assay [2] was 5.48; in assay [3] it was less than 5.00; in assay [4], 6.54.
For `CCCOc1cccc2c1-c1cc(O)cc3c1[C@@H](C2)N(C)CC3`, in assay [3], the pKi was 5.74.

The record behind these values is ChEMBL document CHEMBL1155098, “Synthesis and binding studies of 2-O- and 11-O-substituted N-alkylnoraporphines” (Bioorg Med Chem Lett, 2008).
